In patent US8686113B2 (priority 2009, dated 2014):
Values after ≈ are worked out from the molar mass of the structure shown. Read-outs that look alike come from different tables or passages of the source. Non-standard residues stand in square brackets, D forms with d. Residues, ends and D or L forms follow the SMILES beside them. No end group written: not given here. *: point of attachment. Hyp = O=C(O)[C@@H]1C[C@@H](O)CN1; Orn = NCCC[C@H](N)C(=O)O; NHPr = CCCN*

Experiments:
K. pneumoniae ATCC 27799 = conditions: ATCC 27799
Method: (§1) The minimum inhibitory concentrations (MIC) of the antimicrobial peptides and peptide derivatives were determined in microdilution assays. These used a continuous peptide dilution in sterile flat-bottomed 96-well microtiter plates (polystyrene, Greiner Bio-One GmbH, Frickenhausen, Germany) and a total volume of 100 μL per well. The aqueous peptide or peptidomimetic solutions were diluted with 1% TSB water, to obtain a final concentration of 256 μg/mL. 50 μL of the peptide or peptidomimetic solution was pipetted into the first well of each series and stirred. From this solution, 50 μL was transferred to the second well, stirred and again 50 μL was transferred to the next well, and so on. A double dilution series is obtained, beginning at 256 μg/mL in the first well to 125 ng/mL in the twelfth well. The bacteria, e.g. E. coli BL21 A1, were cultured overnight at 37° C. in nutrient broth (NB, Carl Roth GmbH+Co. KG, Karlsruhe, Germany). 50 μL of a 5×10^6 bacteria/mL suspension in 1% TSB was added to each well of the microtiter plate and thus a final concentration of the peptides or peptidomimetics from 128 μg/mL (well 1) to 62.5 ng/mL (well 12) was established in each series. The plates were incubated at 37° C. for 20 h and then the absorption was measured at 595 nm with a TECAN microtiter plate spectrophotometer (Tecan Trading AG, Mannedorf, Switzerland). The MIC values of all peptides and peptidomimetics were determined in triplicate. Sterile water was used as negative control.
(§2) The tests were in this case carried out in Mueller-Hinton medium (¼ concentrated), which is equivalent to 1% TSB.

[1] = tested on: P. aeruginosa 10 J. Wilson
Method: as §1, §2

P. mirabilis ATCC 7002 = tested on: P. mirabilis ATCC 7002
Method: as §1, §2

E. coli D31 J. Wilson = conditions: ¼ Muller-Hinton medium
Method: as §1, §2

P. vulgaris ATCC 6896 = tested on: P. vulgaris ATCC 6896
Method: as §1, §2

[2] = tested on: S. typhimurium s5 (J. Weiser); conditions: ¼ Muller-Hinton medium
Method: as §1, §2

K. pneumoniae 012-3131 = tested on: K. pneumoniae 012-3131
Method: as §1, §2

E. coli ATCC BAA-457 = conditions: ¼ Muller-Hinton medium
Method: as §1, §2

[3] = tested on: S. typhimurium ATCC 700408
Method: as §1, §2

E. coli 045-849 SENTRY = tested on: E. coli 045-849 SENTRY
Method: as §1, §2

[4] = tested on: K. pneumoniae K6 ATCC 700603; conditions: ATCC 700603
Method: as §1, §2

[5] = tested on: S. typhimurium ATCC 14028
Method: as §1, §2

E. coli BL21 A1 = assay type: cell-based, Escherichia coli; conditions: BL21, 20 h
How it was run: (§3)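 Broth microdilution in 1% TSB with twofold peptide series, final 128 μg/mL to 62.5 ng/mL, against 5×10^6 bacteria/mL stock suspension added 1:1. Incubated 20 h at 37 °C, growth read by absorbance at 595 nm; MIC is the lowest concentration with no growth, determined in triplicate.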

M. luteus 10240 = assay: Growth inhibition assay (microdilution MIC); assay type: cell-based, Micrococcus luteus; conditions: 10240, 20 h
How it was run: as §3

[6] = 25% aqueous mouse serum, 37° C., 75 μg/mL peptide
Method: For this, the peptides and peptidomimetics were dissolved in water, mouse serum was added and the peptide concentration was adjusted to 75 μg/mL. While shaking continuously, the mixture was incubated at 37° C. After 0, 30, 60, 120, 240 and 360 minutes, in each case an aliquot was taken and mixed with 15% aqueous trichloroacetic acid (Carl Roth GmbH & Co. KG; Karlsruhe, Germany). After incubation on ice for a further 10 minutes, the precipitated serum proteins were centrifuged off (5 min, 13400 rpm, MiniSpin, Eppendorf AG, Hamburg, Germany). The supernatant was removed, neutralized with 1 mol/L aqueous sodium hydroxide solution (Fluke Chemie GmbH, Buchs, Switzerland) and stored at −20° C. until analysis.
The supernatants were analyzed by RP-HPLC with a linear acetonitrile gradient (Biosolve BV, Valkenswaard, The Netherlands) in the presence of 0.1% trifluoroacetic acid (TFA, UV-grade, Fluka Chemie GmbH, Buchs, Switzerland) as ion-pairing reagent. The fractions were co-crystallized with α-cyanohydroxycinnamic acid (Bruker Daltonik GmbH; Bremen, Germany) as matrix (5.3 mg/mL in 50% acetonitrile in 0.1% aqueous TFA) and were analyzed with a tandem mass spectrometer (MALDI-TOF/TOF-MS, 4700 Proteomics Analyzer; Applied Biosystems GmbH, Weiterstadt, Germany) in the positive-ion reflector mode. The proportion of intact peptides and their degradation products or metabolites could thus be identified and quantified at the individual time points. The control used was 25% aqueous mouse serum, which was analyzed in parallel for the same time intervals.

[7] = mouse, serum
[8] = tested on: Escherichia coli DSM 10233
Method: as §1
(§4) The peptides shown in Table 8 were investigated for their MIC against pathogenic bacteria such as E. coli DSM 10233, K. pneumoniae DSM 681 and P. aeruginosa DSM 3227.

[9] = tested on: Klebsiella pneumoniae DSM 681
Method: as §1, §4
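Throughout, for Half-life in 25% mouse serum: intact peptide left at successive time points measured by reversed-phase HPLC with an acetonitrile gradient in the supernatant after precipitation of serum proteins.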

Molecule | MIC K. pneumoniae ATCC 27799 (K. pneumoniae ATCC 27799) [µg/mL] | MIC E. coli D31 J. Wilson (E. coli D31 J. Wilson) [µg/mL] | MIC K. pneumoniae 012-3131 (K. pneumoniae 012-3131) [µg/mL] | MIC E. coli SEQ 102ATCC # BAA-4 57 (E. coli ATCC BAA-457) [µg/mL] | MIC K. pneumoniae K6 ATCC 700603 [4] [µg/mL] | MIC E. coli BL21 A1 (E. coli BL21 A1) [µg/mL] | MIC M. luteus 10240 (M. luteus 10240) [µg/mL] | Half-life in 25% mouse serum [6] [h] | half-life [7] [h] | further results
CC[C@H](C)[C@H](NC(=O)[C@H](CCCNC(=N)N)NC(=O)[C@H](CCCNC(=N)N)NC(=O)[C@@H]1CCCN1C(=O)[C@@H]1CCCN1C(=O)[C@H](CCCNC(=N)N)NC(=O)[C@@H]1CCCN1C(=O)[C@H](CCCNC(=N)N)NC(=O)[C@@H]1C[C@@H](O)CN1C(=O)[C@H](CC(C)C)NC(=O)[C@H](Cc1ccc(O)cc1)NC(=O)[C@@H]1CCCN1C(=O)[C@@H]1CCCN1C(=O)[C@H](CCCCN)NC(=O)[C@H](CC(=O)O)NC(=O)[C@@H](N)C(C)C)C(=O)N[C@@H](Cc1ccc(O)cc1)C(=O)N[C@@H](CC(N)=O)C(=O)N[C@@H](CCCNC(=N)N)C(N)=O [compound 22] (H-VDKPPYL[Hyp]RPRPPRRIYNR-NH2) | 16 (≈ 6.65 µM) | 2 (≈ 0.831 µM) | 4 (≈ 1.66 µM) | 4 (≈ 1.66 µM) | 8 (≈ 3.33 µM) | 8 (≈ 3.33 µM) | 4 (≈ 1.66 µM) |  |  | MIC P. aeruginosa 10 J. Wilson [1]: 16 µg/mL (≈ 6.65 µM); MIC P. mirabilis ATCC 7002 (P. mirabilis ATCC 7002; ATCC 7002): 128 µg/mL (≈ 53.2 µM); MIC P. vulgaris ATCC 6896 (P. vulgaris ATCC 6896; ATCC 6896): 128 µg/mL (≈ 53.2 µM); MIC S. typhimurium s5 (J. Weiser) [2]: 8 µg/mL (≈ 3.33 µM); MIC S. typhimurium ATCC 700408 [3]: 0.5 µg/mL (≈ 0.208 µM); MIC E. coli 045-849 SENTRY (E. coli 045-849 SENTRY; 045-849 SENTRY): 4 µg/mL (≈ 1.66 µM); MIC S. typhimurium ATCC 14028 [5]: 2 µg/mL (≈ 0.831 µM)
CC[C@H](C)[C@H](NC(=O)[C@H](CCCNC(=N)N)NC(=O)[C@H](CCCNC(=N)N)NC(=O)[C@@H]1CCCN1C(=O)[C@@H]1CCCN1C(=O)[C@H](CCCNC(=N)N)NC(=O)[C@@H]1CCCN1C(=O)[C@H](CCCNC(=N)N)NC(=O)[C@@H]1CCCN1C(=O)[C@H](CC(C)C)NC(=O)[C@H](Cc1ccc(O)cc1)NC(=O)[C@@H]1CCCN1C(=O)[C@@H]1CCCN1C(=O)[C@H](CCCCN)NC(=O)[C@H](CC(=O)O)NC(=O)[C@@H](N)C(C)C)C(=O)N[C@@H](Cc1ccc(O)cc1)C(=O)N[C@@H](CC(N)=O)C(=O)N[C@@H](CCCN)C(N)=O [compound 50] (H-VDKPPYLPRPRPPRRIYN[Orn]-NH2) |  |  |  |  |  | 8 (≈ 3.41 µM) | 16 (≈ 6.81 µM) | 2 |  | 
CCCNC(=O)[C@H](CCCNC(=N)N)NC(=O)[C@H](CC(N)=O)NC(=O)[C@H](Cc1ccc(O)cc1)NC(=O)[C@@H](NC(=O)[C@H](CCCNC(=N)N)NC(=O)[C@H](CCCNC(=N)N)NC(=O)[C@@H]1CCCN1C(=O)[C@@H]1CCCN1C(=O)[C@H](CCCNC(=N)N)NC(=O)[C@@H]1CCCN1C(=O)[C@H](CCCNC(=N)N)NC(=O)[C@@H]1CCCN1C(=O)[C@H](CC(C)C)NC(=O)[C@H](Cc1ccc(O)cc1)NC(=O)[C@@H]1CCCN1C(=O)[C@@H]1CCCN1C(=O)[C@H](CCCCN)NC(=O)[C@H](CC(=O)O)NC(=O)[C@@H](N)C(C)C)[C@@H](C)CC [compound 58] (H-VDKPPYLPRPRPPRRIYNR-NHPr) |  |  |  |  |  | 4 (≈ 1.64 µM) | 8 (≈ 3.29 µM) | >2 | 1 | 
CC[C@H](C)[C@H](NC(=O)[C@H](CCCN)NC(=O)[C@H](CCCNC(=N)N)NC(=O)[C@@H]1CCCN1C(=O)[C@@H]1CCCN1C(=O)[C@H](CCCNC(=N)N)NC(=O)[C@@H]1CCCN1C(=O)[C@H](CCCNC(=N)N)NC(=O)[C@@H]1CCCN1C(=O)[C@H](CC(C)C)NC(=O)[C@H](Cc1ccc(O)cc1)NC(=O)[C@@H]1CCCN1C(=O)[C@@H]1CCCN1C(=O)[C@H](CCCCN)NC(=O)[C@H](CC(=O)O)NC(=O)[C@@H](N)C(C)C)C(=O)N[C@@H](Cc1ccc(O)cc1)C(=O)N[C@@H](CC(N)=O)C(=O)N[C@@H](CCCNC(=N)N)C(N)=O [compound 61] (H-VDKPPYLPRPRPPR[Orn]IYNR-NH2) |  |  |  |  |  | 8 (≈ 3.41 µM) | 16 (≈ 6.81 µM) | 1.5 | 1.08 | 
CCCNC(=O)[C@H](CCCNC(=N)N)NC(=O)[C@H](CC(N)=O)NC(=O)[C@H](Cc1ccc(O)cc1)NC(=O)[C@@H](NC(=O)[C@H](CCCN)NC(=O)[C@H](CCCNC(=N)N)NC(=O)[C@@H]1CCCN1C(=O)[C@@H]1CCCN1C(=O)[C@H](CCCNC(=N)N)NC(=O)[C@@H]1CCCN1C(=O)[C@H](CCCNC(=N)N)NC(=O)[C@@H]1CCCN1C(=O)[C@H](CC(C)C)NC(=O)[C@H](Cc1ccc(O)cc1)NC(=O)[C@@H]1CCCN1C(=O)[C@@H]1CCCN1C(=O)[C@H](CCCCN)NC(=O)[C@H](CC(=O)O)NC(=O)[C@@H](N)C(C)C)[C@@H](C)CC [compound 71] (H-VDKPPYLPRPRPPR[Orn]IYNR-NHPr) |  |  |  |  |  |  | 8 (≈ 3.35 µM) | >6 | 1.75 | 
CC[C@H](C)[C@H](NC(=O)[C@@H](CCCNC(=N)N)NC(=O)[C@H](CCCNC(=N)N)NC(=O)[C@@H]1CCCN1C(=O)[C@@H]1CCCN1C(=O)[C@H](CCCNC(=N)N)NC(=O)[C@@H]1CCCN1C(=O)[C@H](CCCNC(=N)N)NC(=O)[C@@H]1CCCN1C(=O)[C@H](CC(C)C)NC(=O)[C@H](Cc1ccc(O)cc1)NC(=O)[C@@H]1CCCN1C(=O)[C@@H]1CCCN1C(=O)[C@H](CCCCN)NC(=O)[C@H](CC(=O)O)NC(=O)[C@@H](N)C(C)C)C(=O)N[C@@H](Cc1ccc(O)cc1)C(=O)N[C@@H](CC(N)=O)C(=O)N[C@@H](CCCNC(=N)N)C(N)=O [compound 111] (H-VDKPPYLPRPRPPR[dR]IYNR-NH2) |  |  |  |  |  | 4 (≈ 1.67 µM) | 4 (≈ 1.67 µM) |  |  | MIC E. coli DSM 10233 [8]: 4 µg/mL (≈ 1.67 µM); MIC K. pneumoniae DSM 681 [9]: 4 µg/mL (≈ 1.67 µM)
CC[C@@H](C)[C@@H](NC(=O)[C@@H](Cc1ccc(O)cc1)NC(=O)[C@@H](CC(N)=O)NC(=O)[C@H](N)CCCNC(=N)N)C(=O)N[C@H](CCCNC(=N)N)C(=O)N[C@H](CCCNC(=N)N)C(=O)N1CCC[C@@H]1C(=O)N1CCC[C@@H]1C(=O)N[C@H](CCCNC(=N)N)C(=O)N1CCC[C@@H]1C(=O)N[C@H](CCCNC(=N)N)C(=O)N1CCC[C@@H]1C(=O)N[C@H](CC(C)C)C(=O)N[C@H](Cc1ccc(O)cc1)C(=O)N1CCC[C@@H]1C(=O)N1CCC[C@@H]1C(=O)N[C@H](CCCCN)C(=O)N[C@H](CC(=O)O)C(=O)N[C@@H](C(N)=O)C(C)C [compound 117] (H-[dR][dN][dY][dI][dR][dR][dP][dP][dR][dP][dR][dP][dL][dY][dP][dP][dK][dD][dV]-NH2) |  |  |  |  |  | 64 (≈ 26.8 µM) | 32 (≈ 13.4 µM) |  |  | MIC E. coli DSM 10233 [8]: >32 µg/mL; MIC K. pneumoniae DSM 681 [9]: >32 µg/mL
H-VDKPPYLPRPRPPRRIYNNR-NH2 [compound 15] | 64 | 16 | 16 | 32 | 32 | 8 | 8 |  |  | MIC P. aeruginosa 10 J. Wilson [1]: 16 µg/mL; MIC P. mirabilis ATCC 7002 (P. mirabilis ATCC 7002; ¼ Muller-Hinton medium): >; MIC P. vulgaris ATCC 6896 (P. vulgaris ATCC 6896; ¼ Muller-Hinton medium): >; MIC S. typhimurium s5 (J. Weiser) [2]: 8 µg/mL; MIC S. typhimurium ATCC 700408 [3]: 0.5 µg/mL; MIC E. coli 045-849 SENTRY (E. coli 045-849 SENTRY; 045-849 SENTRY): 4 µg/mL; MIC S. typhimurium ATCC 14028 [5]: 4 µg/mL
VDKPPYLPRPRPPRRIYNNR [compound 14] | 128 | 32 | 32 | 64 | 64 | 8 | 16 | <0.5 |  | MIC E. coli 045-849 SENTRY (E. coli 045-849 SENTRY; ¼ Muller-Hinton medium): 4 µg/mL
VDKPPYLPRPRPPRRIYNR [compound 19] |  |  |  |  |  | 32 | 64 | <0.5 |  | 
